Laboratory results taken from US20260256792A1, “TREATMENT OF CHRONIC SPONTANEOUS URTICARIA BY ADMINISTERING (R)-2-[3-[4-AMINO-3-(2-FLUORO-4-PHENOXY-PHENYL)PYRAZOLO[3,4-D]PYRIMIDIN-1-YL]PIPERIDINE-1-CARBONYL]-4-METHYL-4-[4-(OXETAN-3-YL)PIPERAZIN-1-YL]PENT-2-ENENITRILE” (priority 2023, published 2026).

Test system: moderate-to-severe chronic spontaneous urticaria (CSU)
Test: Phase 2 CSU study: urticaria activity score over 7 days (UAS7)
Type: in vivo, human
Conditions: Omalizumab-naïve
From the text: The study comprises a 12 week, randomized, double-blind, placebo-controlled, multi-center, dose-ranging efficacy and safety phase, followed by a 40 week open label extension (OLE) phase (see FIG. 1). The study consists of three phases and an optional OLE phase. […] Clinically, CSU is characterized by the spontaneous and recurrent appearance of pruritic hives. The proposed primary endpoints were the UAS7 at Week 12 in EU and EU reference countries and the ISS7 in the US. Regardless of where a participant was from, all assessments were the same. The UAS7 score is a composite score containing both the HSS7 and the ISS7. This allowed a global assessment of the two key components of urticaria: hives and itch. […] The UAS is a validated PRO measure. […] The daily UAS scores range from 0 to 6 point/day. […] Patients were to complete the UAS using the e-diary. […] The following secondary endpoints were to be analyzed using the same approach as for the primary endpoint: • Change from baseline in UAS7 at Week 4 • Change from baseline in UAS7 at Week 12 (for US and US reference countries) • Change from baseline in ISS7 at Week 12 (except US and US reference countries) • Change from baseline in HSS7 at Week 12 The following responder secondary endpoints were to be analyzed using the Cochran-Mantel-Haenszel test adjusted by region: • Proportion of participants with UAS7<6 at Week 12 • Proportion of participants with UAS7=0 at Week 12 Participants who received selected prohibited medications and/or rescue medications were to be considered as non-responders for time points after the medication usage. For other participants, all available data including those collected during the off-treatment period were to be used to determine the responder/non-responder status. Missing data were to be considered as non-responders.

CC(C)(C=C(C#N)C(=O)N1CCC[C@@H](n2nc(-c3ccc(Oc4ccccc4)cc3F)c3c(N)ncnc32)C1)N1CCN(C2COC2)CC1 [rilzabrutinib, (R)-2-[3-[4-amino-3-(2-fluoro-4-phenoxy-phenyl)pyrazolo[3,4-d]pyrimidin-1-yl]piperidine-1-carbonyl]-4-methyl-4-[4-(oxetan-3-yl)piperazin-1-yl]pent-2-enenitrile]
RRD (%) for rilzabrutinib vs. placebo, UAS7 = 0 (400 mg BID, Week 6): 7.6 %
RRD (%) for rilzabrutinib vs. placebo, UAS7 ≤6 (400 mg BID, Week 6): 8.8 %
Responder n (%), UAS7 = 0 (400 mg BID, Week 6): 4 (11.4) n (%)
Responder n (%), UAS7 ≤6 (400 mg BID, Week 6): 9 (25.7) n (%)
Imputed non-responder n (%), UAS7 = 0 (400 mg BID, Week 7): 2 (5.7) n (%)
Imputed non-responder n (%), UAS7 ≤6 (400 mg BID, Week 7): 2 (5.7) n (%)
Non-responder n (%), UAS7 = 0 (400 mg BID, Week 7): 31 (88.6) n (%)
Non-responder n (%), UAS7 ≤6 (400 mg BID, Week 7): 26 (74.3) n (%)
OR for rilzabrutinib vs. placebo, UAS7 = 0 (400 mg BID, Week 7): 4.254
OR for rilzabrutinib vs. placebo, UAS7 ≤6 (400 mg BID, Week 7): 2.622
RRD (%) for rilzabrutinib vs. placebo, UAS7 = 0 (400 mg BID, Week 7): 8.1 %
RRD (%) for rilzabrutinib vs. placebo, UAS7 ≤6 (400 mg BID, Week 7): 13.6 %
Responder n (%), UAS7 = 0 (400 mg BID, Week 7): 4 (11.4) n (%)
Responder n (%), UAS7 ≤6 (400 mg BID, Week 7): 9 (25.7) n (%)
Imputed non-responder n (%), UAS7 = 0 (400 mg BID, Week 8): 3 (8.6) n (%)
Imputed non-responder n (%), UAS7 ≤6 (400 mg BID, Week 8): 3 (8.6) n (%)
Non-responder n (%), UAS7 = 0 (400 mg BID, Week 8): 29 (82.9) n (%)
Non-responder n (%), UAS7 ≤6 (400 mg BID, Week 8): 22 (62.9) n (%)
OR for rilzabrutinib vs. placebo, UAS7 = 0 (400 mg BID, Week 8): 3.154
OR for rilzabrutinib vs. placebo, UAS7 ≤6 (400 mg BID, Week 8): 2.745
RRD (%) for rilzabrutinib vs. placebo, UAS7 = 0 (400 mg BID, Week 8): 10.7 %
RRD (%) for rilzabrutinib vs. placebo, UAS7 ≤6 (400 mg BID, Week 8): 18.5 %
Responder n (%), UAS7 = 0 (400 mg BID, Week 8): 6 (17.1) n (%)
Responder n (%), UAS7 ≤6 (400 mg BID, Week 8): 13 (37.1) n (%)
Imputed non-responder n (%), UAS7 = 0 (400 mg BID, Week 9): 7 (20.0) n (%)
Imputed non-responder n (%), UAS7 ≤6 (400 mg BID, Week 9): 7 (20.0) n (%)
Non-responder n (%), UAS7 = 0 (400 mg BID, Week 9): 29 (82.9) n (%)
Non-responder n (%), UAS7 ≤6 (400 mg BID, Week 9): 25 (71.4) n (%)
OR for rilzabrutinib vs. placebo, UAS7 = 0 (400 mg BID, Week 9): 2.249
OR for rilzabrutinib vs. placebo, UAS7 ≤6 (400 mg BID, Week 9): 2.797
RRD (%) for rilzabrutinib vs. placebo, UAS7 = 0 (400 mg BID, Week 9): 8.4 %
RRD (%) for rilzabrutinib vs. placebo, UAS7 ≤6 (400 mg BID, Week 9): 15.6 %
Responder n (%), UAS7 = 0 (400 mg BID, Week 9): 6 (17.1) n (%)
Responder n (%), UAS7 ≤6 (400 mg BID, Week 9): 10 (28.6) n (%)
Imputed non-responder n (%), UAS7 = 0 (400 mg BID, Week 10): 8 (22.9) n (%)
Imputed non-responder n (%), UAS7 ≤6 (400 mg BID, Week 10): 8 (22.9) n (%)
Non-responder n (%), UAS7 = 0 (400 mg BID, Week 10): 27 (77.1) n (%)
Non-responder n (%), UAS7 ≤6 (400 mg BID, Week 10): 26 (74.3) n (%)
OR for rilzabrutinib vs. placebo, UAS7 = 0 (400 mg BID, Week 10): 2.159
OR for rilzabrutinib vs. placebo, UAS7 ≤6 (400 mg BID, Week 10): 1.923
RRD (%) for rilzabrutinib vs. placebo, UAS7 = 0 (400 mg BID, Week 10): 10.6 %
RRD (%) for rilzabrutinib vs. placebo, UAS7 ≤6 (400 mg BID, Week 10): 9.9 %
Responder n (%), UAS7 = 0 (400 mg BID, Week 10): 8 (22.9) n (%)
Responder n (%), UAS7 ≤6 (400 mg BID, Week 10): 9 (25.7) n (%)
Imputed non-responder n (%), UAS7 = 0 (400 mg BID, Week 11): 7 (20.0) n (%)
Imputed non-responder n (%), UAS7 ≤6 (400 mg BID, Week 11): 7 (20.0) n (%)
Non-responder n (%), UAS7 = 0 (400 mg BID, Week 11): 30 (85.7) n (%)
Non-responder n (%), UAS7 ≤6 (400 mg BID, Week 11): 25 (71.4) n (%)
OR for rilzabrutinib vs. placebo, UAS7 = 0 (400 mg BID, Week 11): 2.551
OR for rilzabrutinib vs. placebo, UAS7 ≤6 (400 mg BID, Week 11): 1.853
RRD (%) for rilzabrutinib vs. placebo, UAS7 = 0 (400 mg BID, Week 11): 7.4 %
Responder n (%), UAS7 = 0 (400 mg BID, Week 11): 5 (14.3) n (%)
Responder n (%), UAS7 ≤6 (400 mg BID, Week 11): 10 (28.6) n (%)
Imputed non-responder n (%), UAS7 = 0 (400 mg BID, Week 12): 11 (31.4) n (%)
Imputed non-responder n (%), UAS7 ≤6 (400 mg BID, Week 12): 11 (31.4) n (%)
Non-responder n (%), UAS7 = 0 (400 mg BID, Week 12): 30 (85.7) n (%)
Non-responder n (%), UAS7 ≤6 (400 mg BID, Week 12): 28 (80.0) n (%)
OR for rilzabrutinib vs. placebo, UAS7 = 0 (400 mg BID, Week 12): 1.258
OR for rilzabrutinib vs. placebo, UAS7 ≤6 (400 mg BID, Week 12): 1.904
RRD (%) for rilzabrutinib vs. placebo, UAS7 = 0 (400 mg BID, Week 12): 2.6 %
RRD (%) for rilzabrutinib vs. placebo, UAS7 ≤6 (400 mg BID, Week 12): 7.9 %
Responder n (%), UAS7 = 0 (400 mg BID, Week 12): 5 (14.3) n (%)
Responder n (%), UAS7 ≤6 (400 mg BID, Week 12): 7 (20.0) n (%)
Imputed non-responder n (%), UAS7 = 0 (400 mg QPM, Week 1): 0 n (%)
Imputed non-responder n (%), UAS7 ≤6 (400 mg QPM, Week 1): 0 n (%)
Non-responder n (%), UAS7 = 0 (400 mg QPM, Week 1): 37 (100) n (%)
